Experimental data from ChEMBL document CHEMBL5653615 (J Biol Chem, 2013).

Tests used:
[1] = biological target: T1, Inhibitor of nuclear factor kappa-B kinase subunit epsilon (Homo sapiens) (UniProt Q14164); settings: dose 1.82 nM
T1 sequence (whole entry): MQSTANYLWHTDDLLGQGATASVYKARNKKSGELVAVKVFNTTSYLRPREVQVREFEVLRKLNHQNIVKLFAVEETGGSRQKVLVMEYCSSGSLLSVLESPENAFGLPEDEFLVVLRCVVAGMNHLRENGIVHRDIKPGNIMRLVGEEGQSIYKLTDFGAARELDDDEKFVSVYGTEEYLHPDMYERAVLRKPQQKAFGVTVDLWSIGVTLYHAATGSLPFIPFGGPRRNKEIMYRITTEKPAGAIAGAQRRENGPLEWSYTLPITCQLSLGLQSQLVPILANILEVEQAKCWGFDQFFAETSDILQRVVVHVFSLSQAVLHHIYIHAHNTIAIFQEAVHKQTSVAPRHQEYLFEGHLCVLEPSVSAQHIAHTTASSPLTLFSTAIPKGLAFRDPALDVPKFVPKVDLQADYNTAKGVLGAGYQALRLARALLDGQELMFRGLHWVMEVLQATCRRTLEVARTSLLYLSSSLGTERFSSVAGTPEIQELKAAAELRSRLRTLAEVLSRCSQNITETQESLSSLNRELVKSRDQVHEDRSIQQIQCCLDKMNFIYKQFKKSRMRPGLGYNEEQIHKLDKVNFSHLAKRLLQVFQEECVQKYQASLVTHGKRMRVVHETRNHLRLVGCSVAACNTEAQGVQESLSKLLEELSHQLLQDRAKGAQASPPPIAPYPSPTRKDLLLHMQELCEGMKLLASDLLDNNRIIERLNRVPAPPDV
Description: Inhibition of human IKKe at 1.82 nM by HotSpot assay relative to control

[2] = biological target: Mitogen-activated protein kinase 14 (Homo sapiens) (UniProt Q16539); test: Inhibition of human MAPK14 at 1.82 nM by HotSpot assay relative to control
[3] = biological target: T2, Mitogen-activated protein kinase kinase kinase 3 (Homo sapiens) (UniProt Q99759); test: Inhibition of human MEKK3 at 1.82 nM by HotSpot assay relative to control
T2 sequence (whole entry): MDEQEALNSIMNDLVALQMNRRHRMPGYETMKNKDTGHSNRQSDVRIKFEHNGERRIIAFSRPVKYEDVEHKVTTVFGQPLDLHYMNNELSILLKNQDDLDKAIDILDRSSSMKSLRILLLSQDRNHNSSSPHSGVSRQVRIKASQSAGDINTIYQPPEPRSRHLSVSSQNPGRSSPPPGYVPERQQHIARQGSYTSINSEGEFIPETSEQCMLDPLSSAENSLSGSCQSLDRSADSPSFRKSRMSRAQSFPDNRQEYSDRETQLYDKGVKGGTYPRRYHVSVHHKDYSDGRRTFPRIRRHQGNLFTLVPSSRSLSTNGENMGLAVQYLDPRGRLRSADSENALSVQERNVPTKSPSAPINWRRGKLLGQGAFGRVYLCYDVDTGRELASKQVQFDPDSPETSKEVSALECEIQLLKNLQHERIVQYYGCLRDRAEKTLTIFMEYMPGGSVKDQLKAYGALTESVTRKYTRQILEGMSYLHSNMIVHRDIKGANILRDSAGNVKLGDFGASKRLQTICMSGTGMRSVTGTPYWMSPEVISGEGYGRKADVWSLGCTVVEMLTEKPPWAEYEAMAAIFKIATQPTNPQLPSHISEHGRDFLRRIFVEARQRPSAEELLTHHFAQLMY

[4] = biological target: T3, Dual specificity tyrosine-phosphorylation-regulated kinase 4 (Homo sapiens) (UniProt Q9NR20); test: Inhibition of human DYRK4 at 1.82 nM by HotSpot assay relative to control
T3 sequence (whole entry): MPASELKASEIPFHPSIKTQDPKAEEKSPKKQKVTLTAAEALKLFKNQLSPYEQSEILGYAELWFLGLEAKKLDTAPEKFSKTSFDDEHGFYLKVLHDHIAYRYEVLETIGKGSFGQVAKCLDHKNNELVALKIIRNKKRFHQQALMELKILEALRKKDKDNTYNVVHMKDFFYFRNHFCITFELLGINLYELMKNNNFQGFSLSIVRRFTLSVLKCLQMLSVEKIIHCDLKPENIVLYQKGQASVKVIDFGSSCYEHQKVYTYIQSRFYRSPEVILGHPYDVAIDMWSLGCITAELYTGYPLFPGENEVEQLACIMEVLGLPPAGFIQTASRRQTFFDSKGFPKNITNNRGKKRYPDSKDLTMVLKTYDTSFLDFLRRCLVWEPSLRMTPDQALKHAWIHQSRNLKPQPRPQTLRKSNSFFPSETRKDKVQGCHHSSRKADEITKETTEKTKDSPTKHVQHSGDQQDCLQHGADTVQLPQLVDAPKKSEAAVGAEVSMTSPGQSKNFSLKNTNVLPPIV

[5] = biological target: T4, Serine/threonine-protein kinase Nek11 (Homo sapiens) (UniProt Q8NG66); test: Inhibition of human NEK11 at 18.6 nM by HotSpot assay relative to control
T4 sequence (whole entry): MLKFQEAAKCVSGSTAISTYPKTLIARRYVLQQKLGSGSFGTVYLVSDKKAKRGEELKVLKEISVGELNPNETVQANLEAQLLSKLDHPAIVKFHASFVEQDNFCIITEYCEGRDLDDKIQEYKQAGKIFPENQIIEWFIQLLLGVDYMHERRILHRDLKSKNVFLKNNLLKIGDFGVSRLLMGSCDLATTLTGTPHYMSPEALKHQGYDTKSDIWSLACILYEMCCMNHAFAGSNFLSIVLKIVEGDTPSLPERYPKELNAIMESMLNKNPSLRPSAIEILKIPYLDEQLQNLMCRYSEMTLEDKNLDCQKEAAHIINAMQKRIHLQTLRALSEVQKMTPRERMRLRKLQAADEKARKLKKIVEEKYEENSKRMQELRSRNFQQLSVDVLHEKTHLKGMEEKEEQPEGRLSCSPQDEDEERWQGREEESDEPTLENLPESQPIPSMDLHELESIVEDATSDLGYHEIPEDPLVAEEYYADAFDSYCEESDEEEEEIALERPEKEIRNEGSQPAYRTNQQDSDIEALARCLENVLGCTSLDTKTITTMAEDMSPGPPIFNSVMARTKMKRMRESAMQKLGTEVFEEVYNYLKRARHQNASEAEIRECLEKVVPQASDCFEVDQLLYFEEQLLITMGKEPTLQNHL

Sequence of Mitogen-activated protein kinase 14 (Homo sapiens) (Q16539 whole entry): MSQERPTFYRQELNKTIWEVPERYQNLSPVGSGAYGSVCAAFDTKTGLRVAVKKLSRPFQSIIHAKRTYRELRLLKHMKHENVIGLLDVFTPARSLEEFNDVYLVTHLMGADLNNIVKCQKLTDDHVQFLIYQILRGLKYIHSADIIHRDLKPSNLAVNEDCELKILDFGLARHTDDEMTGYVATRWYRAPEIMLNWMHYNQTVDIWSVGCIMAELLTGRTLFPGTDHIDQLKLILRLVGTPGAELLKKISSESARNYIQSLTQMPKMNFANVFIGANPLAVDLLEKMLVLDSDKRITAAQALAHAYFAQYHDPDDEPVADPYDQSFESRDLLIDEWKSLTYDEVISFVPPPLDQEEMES

SMILES	inhibition [1] [%]	inhibition [2] [%]	inhibition [3] [%]	inhibition [4] [%]	inhibition [5] [%]
C[C@@]1(C(=O)Nc2ccc(F)nc2)CCCN1c1nc(Nc2cc(C3CC3)n[nH]2)c2cccn2n1	5.87	-2.94	-2.8	-0.4	–
C[C@]1(O)C[C@@H](c2nc(-c3ccc4ccc(-c5ccccc5)nc4c3)c3c(N)nccn32)C1	–	–	–	–	10.2
